# Data taken from US8501796B2, “Ester pro-drugs of [3-(1-(1H-imidazol-4-yl)ethyl)-2-methylphenyl] methanol for lowering intraocular pressure” (Allergan, Inc., priority 2010, dated 2013).
# Legend:
# [1] = tested on: Normotensive male Dutch-Belted rabbits; test: IOP lowering in normotensive rabbits after a topical eye drop; format: in vivo; conditions: rabbit, single 50 μl topical drop yielding 0.15% or 0.3% of active metabolite, 1% polysorbate 80 pH 5.5; IOP measured 0-8 hours; FIG. 1
# Procedure: The experimental animals used, were Normotensive male Dutch-Belted rabbits (Myrtle's Rabbitry) over 6 months in age (n=4/compound/dose screened). A single drop (50 μl) of the drug formulation, which yields 0.15% or 0.3% of the active metabolite when completely hydrolyzed in 1% polysorbate 80 at pH 5.5, was administered topically by pipette onto the right eye (treated eye) at approximately 0700 hours. IOP of the rabbits (treated and untreated eyes) was measured 0 hours before and at 0.5, 1, 2, 3, 4, 6 and 8 hours after topical eyedrop administration. IOP at the time of eye drop administration (0 hours) was used as a baseline value. Prior to the tonometric measurements, 0.05% proparacaine (50 μl) was administered to each eye. Tonometric IOP measurements were obtained with a Mentor Pneumontonmeter. Additionally, all studies were masked. At least 1 week of wash-out time was allowed for each rabbit between dosings. All animals were examined for sedation, ocular irritation, and changes in pupil diameter throughout the course of the experiments.
# monkeys = test: Intraocular pressure-lowering effect in monkeys compared to placebo; format: in vivo; conditions: monkeys treated with composition containing the compound
smiles,measurement,setting,value
"Cc1c(COC(=O)C(C)C)cccc1[C@H](C)c1c[nH]cn1 [Compound 1, iso-Butyric acid 3-[(S)-1-(1H-imidazol-4-yl)-ethyl]-2-methyl-benzyl ester]",IOP lowering capacity (efficacy) compared to Alphagan P,[1],equal or comparable efficacy to Alphagan P®
same,intraocular pressure duration compared to Alphagan P,[1],longer intraocular pressure duration than Alphagan P®
same,time for which the decrease in intraocular pressure is maintained,monkeys,up to 24 hours
